Series [1] relates to leucine aminopeptidase (LAP). Nature of the series: LAP determination in serum, absorption change per minute (Example 1). Type of series: biochemical. How it is done: 3 ml of the reagent solution was incubated at 37° C. for ten minutes. To the solution was added 0.05 ml of a serum sample and the mixture was immediately stirred and the change in absorption of the solution at 745 nm was measured for one minute.
LAP activity in the sample can be calculated using the following equation: [formula] ΔE means the amount of absorption change per minute.
The same procedures as described above were repeated except that the following materials were used. […]

Series [2] can be described thus: Maximum wavelength of formed pigment. Type of series: physicochemical. How it is done:
50 μl of 1 mM each free compound was added to 3 ml of 0.1M phosphate buffer containing 0.5 mg/ml EMSE and 1 U/ml laccase and the mixture was incubated at 37° C. for 5 minutes. The absorption of the reaction solution at λmax was measured. As a control, 5-aminosalicylic acid was used and the reaction of the compound with 2,6-xylenol was carried out in the presence of metaperiodate under strong alkaline conditions.

Series [3] can be described thus: Stability of pigment. It is filed as physicochemical.
A short description of series [4]: Solubility of substrate. It is filed as physicochemical. Particulars: read-out: S: Solubility.
The test system of series [5] is leucine aminopeptidase (LAP). Nature of the series: LAP determination in serum, end-point colour reactions (Example 2). It is filed as biochemical. The method, then: The reagent solution wherein laccase was excluded from the reagent solution of Example 1 was used.
3 ml of the reagent solution was incubated at 37° C. for 10 minutes and to the mixture was added 0.05 ml of a serum sample. The mixture was immediately stirred and incubated at 37° C. for 10 minutes. After ten minutes passed,
(a) 0.03 ml of 10 mg/ml α-naphthol methanol solution and 0.1 ml of 1N-NaOH solution containing 50 mg/ml sodium salt of meta-periodate were added to the solution. The mixture was incubated at 37° C. for 10 minutes and the absorption of the reaction solution at 600 nm was measured.
(b) 1 ml of 10 mg/ml p-N,N-dimethylamino cinnamaldehyde ethanol solution and 1 ml of 0.4N-HCl solution were added to the solution and the mixture was incubated at 37° C. for 10 minutes. The absorption of the reaction solution at 570 nm was measured.
(c) 0.5 ml of 1N-HCl and 0.5 ml of 1 mg/ml sodium nitrite were added to the solution and the mixture was incubated at 37° C. for 10 minutes. Then 0.1 ml of 1 mg/ml 3,5-xylenol ethanol solution was added thereto and the absorption of the reaction solution at 650 nm was measured.

Setting [6] is: Serum(1), 37° C., 745 nm Compound No. 2, 635 nm (a), 565 nm (b), 675 nm (c).

Converted amounts (≈) assume the structure as drawn.

Turning to `CC(C)C[C@H](N)C(=O)Nc1ccc(O)c(C(=O)O)c1` [(a), L-leucil-3-carboxy-4-hydroxyanilide], the “amount of absorption change per minute” value in series [1] (Serum (2), same wavelengths) turned out to be 0.0127; in series [1] (Serum (3), same wavelengths), 0.0198; in series [1] (Serum (4), same wavelengths), 0.0203; in series [1] (Serum (5), same wavelengths) it was 0.0148; in series [1] (Serum (6), same wavelengths), 0.0158; in series [1] (Serum (7), same wavelengths), 0.0153. For the same molecule, the “amount of absorption change per minute” value in series [1] (Serum (8), same wavelengths) is 0.0191; in series [1] (Serum (9), same wavelengths), 0.0190; in series [1] (Serum (10), same wavelengths), 0.0184; in series [1] (setting [6]), 0.0188.
Regarding `CC(C)C[C@H](N)C(=O)Nc1ccc([N+](=O)[O-])cc1` [(b), L-leucil-p-nitroanilide], the “amount of absorption change per minute” value was determined as 0.0054 in series [1] (Serum (2), same wavelengths); 0.0090 in series [1] (Serum (3), same wavelengths); 0.0089 in series [1] (Serum (4), same wavelengths); 0.0071 in series [1] (Serum (5), same wavelengths); 0.0071 in series [1] (Serum (6), same wavelengths); 0.0074 in series [1] (Serum (7), same wavelengths). Further, the “amount of absorption change per minute” value in series [1] (Serum (8), same wavelengths) is recorded as 0.0086; in series [1] (Serum (9), same wavelengths), 0.0082; in series [1] (Serum (10), same wavelengths) it was 0.0079; in series [1] (setting [6]), 0.0071.
As to `CCN(CC)c1ccc(NC(=O)[C@@H](N)CC(C)C)cc1` [(c), L-leucil-p-N,N-- diethylaminoanilide], the “amount of absorption change per minute” value in series [1] (Serum (2), same wavelengths) was 0.0095; in series [1] (Serum (3), same wavelengths) it was 0.0150; in series [1] (Serum (4), same wavelengths) it was 0.0145; in series [1] (Serum (5), same wavelengths) it was 0.0116; in series [1] (Serum (6), same wavelengths), 0.0126; in series [1] (Serum (7), same wavelengths), 0.0113. For the same molecule, the “amount of absorption change per minute” value in series [1] (Serum (8), same wavelengths) came to 0.0150; in series [1] (Serum (9), same wavelengths) it was 0.0138; in series [1] (Serum (10), same wavelengths) it was 0.0133; in series [1] (setting [6]), 0.0158.
In general, solubility refers to the concentration that dissolves in the medium under given conditions. As for `CC(C)C[C@H](N)C(=O)Nc1ccc(N(CCCS(=O)(=O)O)CCCS(=O)(=O)O)cc1` [Compound No. 2, L-leucyl-p-N,N-disulfopropyl aminoanilide], the “λmax: Maximum wavelength” value in series [2] is 745 nm. The “ST: Stability of pigment” value in series [3] was over 98%. The solubility in series [4] was determined as 130 mg/mL (≈ 279 mM). Besides, the “amount of absorption change per minute” value worked out at 0.0395 in series [1] (Serum (2), same wavelengths); 0.0543 in series [1] (Serum (3), same wavelengths); 0.0541 in series [1] (Serum (4), same wavelengths); 0.0382 in series [1] (Serum (5), same wavelengths); 0.0437 in series [1] (Serum (6), same wavelengths); 0.0400 in series [1] (Serum (7), same wavelengths). Besides, the “amount of absorption change per minute” value is 0.0532 in series [1] (Serum (8), same wavelengths); 0.0537 in series [1] (Serum (9), same wavelengths); 0.0476 in series [1] (Serum (10), same wavelengths); 0.0454 in series [1] (setting [6]). The Ratio of sensitivity in series [5] (Example 1 method (EMSE + laccase, 745 nm), reference) is 100; in series [5] (method (a), relative to Example 1 = 100) it was 73; in series [5] (method (b), relative to Example 1 = 100), 85; in series [5] (method (c), relative to Example 1 = 100), 61. The “absorption of the reaction solution” value in series [5] (method (a) α-naphthol + meta-periodate/NaOH, 600 nm, Serum 1) is 0.331; in series [5] (method (a), 600 nm, Serum 2) it was 0.291; in series [5] (method (a), 600 nm, Serum 3) it was 0.389; in series [5] (method (a), 600 nm, Serum 4) it was 0.395; in series [5] (method (a), 600 nm, Serum 5), 0.277; in series [5] (method (a), 600 nm, Serum 6), 0.322. Further, the “absorption of the reaction solution” value is given as 0.291 in series [5] (method (a), 600 nm, Serum 7); 0.386 in series [5] (method (a), 600 nm, Serum 8); 0.392 in series [5] (method (a), 600 nm, Serum 9); 0.346 in series [5] (method (a), 600 nm, Serum 10); 0.386 in series [5] (method (b) p-N,N-dimethylamino cinnamaldehyde/HCl, 570 nm, Serum 1); 0.336 in series [5] (method (b), 570 nm, Serum 2). Also, the “absorption of the reaction solution” value in series [5] (method (b), 570 nm, Serum 3) is 0.466; in series [5] (method (b), 570 nm, Serum 4), 0.460; in series [5] (method (b), 570 nm, Serum 5) it was 0.320; in series [5] (method (b), 570 nm, Serum 6) it was 0.372; in series [5] (method (b), 570 nm, Serum 7) it was 0.333; in series [5] (method (b), 570 nm, Serum 8) it was 0.453. The “absorption of the reaction solution” value in series [5] (method (b), 570 nm, Serum 9) turned out to be 0.460; in series [5] (method (b), 570 nm, Serum 10) it was 0.405; in series [5] (method (c) sodium nitrite/HCl then 3,5-xylenol, 650 nm, Serum 1), 0.277; in series [5] (method (c), 650 nm, Serum 2), 0.241; in series [5] (method (c), 650 nm, Serum 3), 0.330; in series [5] (method (c), 650 nm, Serum 4), 0.325. Further, the “absorption of the reaction solution” value in series [5] (method (c), 650 nm, Serum 5) worked out at 0.230; in series [5] (method (c), 650 nm, Serum 6), 0.270; in series [5] (method (c), 650 nm, Serum 7), 0.244; in series [5] (method (c), 650 nm, Serum 8), 0.325; in series [5] (method (c), 650 nm, Serum 9), 0.331; in series [5] (method (c), 650 nm, Serum 10) it was 0.292.
On to `CC(C)C[C@H](N)C(=O)Nc1ccc(O)c(C(=O)O)c1` [Control, reference compound], for which the “λmax: Maximum wavelength” value in series [2] was determined as 615 nm. Further, the “ST: Stability of pigment” value in series [3] came to 90%. Moreover, the solubility in series [4] was under 20 mg/mL.
`CC(C)C[C@H](N)C(=O)Nc1ccc(N(C)CCCS(=O)(=O)O)cc1` [compound 4]: the “λmax: Maximum wavelength” value in series [2] turned out to be 750 nm. In addition, the “ST: Stability of pigment” value in series [3] was over 96%. In addition, the solubility in series [4] worked out at 65 mg/mL (≈ 182 mM).
